# Measured values published in patent publication US9163018B2, “Method of treatment of age-related macular degeneration (AMD)” (Prana Biotechnology Limited, priority 2006, dated 2015).
# Assays:
# Aβ 1-42 = target: T1, Aβ 1-42 (Homo sapiens, UniProt P05067); assay: Fluorometric H2O2 assay (inhibition of Abeta H2O2 production); type: biochemical; conditions: concentration required to inhibit 50% of Abeta H2O2 production; read-out: H2O2 IC50
# T1 construct: The reaction solutions contained Aβ 1-42 at concentrations
# T1 sequence (P05067 672-713 limits assumed): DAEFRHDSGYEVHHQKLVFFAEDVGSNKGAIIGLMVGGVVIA
# Description: Assay 1. Fluorometric H2O2 Assay
# A fluorometric assay was used to test the ability of a test compound to inhibit hydrogen peroxide generation by Aβ in the presence of copper based on dichlorofluoroscein diacetate (DCF; Molecular Probes, Eugene Oreg.). The DCF solution (5 mM) in 100% dimethyl sulphoxide (previously purged with argon for 2 hr at 20° C.) was deacetylated in the presence of 0.25M NaOH for 30 min and neutralized at pH 7.4 to a final concentration of 1 mM. Horseradish peroxidase (HRP) stock solution was prepared to 1 μM at pH 7.4. The reactions were carried out in PBS, pH 7.4 in a 96 well plate (total volume=250 μl/well). […] The reaction mixture was incubated at 37 C for 60 min. […] H2O2 concentration may be established by comparing fluorescence with the H2O2 standards, Inhibition of Aβ H2O2 production was assayed by including a given concentration of test compound(s) in the test wells.
# [1] = target: T2, Abeta:Zn (25:50 μM) Synthetic Aggregations (Homo sapiens, UniProt P05067); assay: Disaggregation of Abeta:Zn synthetic aggregates (ThT fluorescence); type: biochemical; conditions: for Disaggregation % Aggregate reduction at 5 μM: 5 μM test compound; for EC50: Abeta:Zn 25:50 μM aggregates
# T2 construct: PB Compound Mediated Dissolution of Aggregated Abeta 1-42; purchased Keck Laboratory, Yale University School of Medicine
# T2 sequence (P05067 672-713 limits assumed): as above
# Description: PB Compound Mediated Dissolution of Aggregated Abeta 1-42
# Abeta1-42, is available from the Keck Laboratory, Yale University School of Medicine. PBS (pH 6.6): Sigma Cat# D-8662. Zn(ZnCl2): BDH Cat#100884E. (Dissolved in water in 1 mM concentration) DMSO: Ajax Cat#2225. Thioflavin T: Sigma Cat# T-3516. (Dissolved in water in 1 mM concentration)
# By way of example of an amyloid composition, Abeta is dissolved in distilled water and peptide concentration is assessed by measured absorption at 214 nm in UV spectrometer. An aggregation reactive mixture (per one concentration of one testing compound) is set us as follows: Abeta: 25 μM, ZnCl2 50 μM, ThT 50 μM, PBS to make up to 500 μl. The tube is wrapped with foil and incubated at 37 degrees by rotation for 24 hours. A serial dilution of each test compound is made up in DMSO, for example: 100 μM, 500 μM, 1000 μM, 2500 μM and 5000 μM. The final concentrations are 1, 5, 10, 25 and 50 μM, 5 μl of each of these compounds is placed in a centrifuge tube and 5 μl of DMSO is added to both negative and positive control tubes. 495 μl of aggregates (after 24 hours incubation) is added to the centrifuge tube. The negative control is PBS plus ZnCl2 and ThT and DMSO. The positive control is aggregates plus DMSO. The tubes are incubated at 37 degrees for further 2 hours with rotation. Samples are measured for ThT fluorescence using an LS55 (Perkin Elmer) fluorimeter in a cuvette (500 μl volume). The excitation wavelength is 450 nm and the emission wavelength is 480 nm. Data are analyzed using graph pad prism program. The tested compounds included so called “PB” compounds.
# [2] = system: primary cortical neuronal cultured cells; assay: Test compound cytotoxicity, MTS assay, primary cortical neuronal cultures; type: cell-based, mouse; conditions: for Cytotox (% viable) Neuronal cells at 1 μM: 1 μM test compound; for Cytotox (% viable) Neuronal cells at 10 μM: 10 μM test compound
# Description: Assay 2. Neurotoxicity Assays
# Primary Cortical Neuronal Cultures
# Media was then replaced with Neurobasal media (Invitrogen Life Technologies) and B27 supplements (Invitrogen Life Technologies). Cultures were maintained at 37° C. in 5% CO2. Prior to experimentation, the culture medium was replaced with Neurobasal media and B27 minus antioxidants (Invitrogen Life Technologies).
# (§1) Assay 3. MTS Assay for Cell Viability
# (§2) Cell viability is determined using the MTS assay. Culture medium is replaced with fresh neurobasal medium plus B27 supplements minus antioxidants. 1/10th volume MTS solution (Cell Titre 96 Aqueous One, Promega Corporation) and incubated at 37° C., 2 hrs. 200 microliter aliquots are measured with a spectrophotometer at 560 nm.
# Assay 4. Assay for Test Compound Cytoxicity
# Neuronal cortical cells were cultured for five days as per Assay 2 in NB media and B27 supplement.
# On day six the test compounds were added to the neuronal cell cultures in NB media and B27 supplement minus antioxidants.
# Test compounds were dissolved in 100% DMSO to a concentration of 2.5 mM (10 mM if excess compound was weighed out per vial—then diluted to 2.5 mM).
# Test compounds were not added directly to cells, instead they were added to a 48 well ‘Drug Plate’ as comprised below:
# The Drug Plate was incubated at 37° C. for 15 mins. 200 μl of each well was added in triplicate to the corresponding cell plate. The cell plate was incubated at 37 C, for 4 days.
# On completion of the assay, 1/10 volume MTS was added per well of plate (ie 25 μl/250 μl). The plates were incubated at 37 C for 2 hrs, and then absorbance was read at 560 nm.
# [3] = system: M17 human neuroblastoma cells; assay: Cytotoxicity, M17 human neuroblastoma cells; type: cell-based; conditions: for Cytotox (% viable) M17 cells at 1 μM: 1 μM test compound; for Cytotox (% viable) M17 cells at 10 μM: 10 μM test compound
# Description: as §1, §2
Compound,IC50 (Aβ 1-42) [µM],Disaggregation % Aggregate reduction at 5 μM [1] [%],EC50 [1] [µM],Cytotox (% viable) Neuronal cells at 1 μM [2] [%],Cytotox (% viable) Neuronal cells at 10 μM [2] [%],Cytotox (% viable) M17 cells at 1 μM [3] [%],Cytotox (% viable) M17 cells at 10 μM [3] [%]
O=S(=O)(O)c1ccc(-c2ccnc3c2ccc2c(-c4ccc(S(=O)(=O)O)cc4)ccnc23)cc1 [PB 68],> 10,44,8.5,,,,
CN(C)c1ccc(-c2cc(Cl)c3cccnc3c2O)cc1 [PB 851],,,,94,85,,
c1ccc(-c2ccccn2)nc1 [PB 898],0.23,32,> 20,,,,
Br.CC(Br)CCn1cnc2c(O)c(Cl)cc(Cl)c2c1=O (stereo not drawn) [PB 1114],,19.2,> 20,101,73,,
O=c1c2cccc(O)c2ncn1Cc1ccccn1 [PB 1117],0.72,57.3,< 0.4,,,109.2,96
O=c1c2cccc(O)c2ncn1CC1CC1 [PB 1118],1.44,58,< 0.4,,,106.8,88.6
CCc1cnc2c(O)cccn2c1=O [PB 1124],0.4,8.4,> 20,,,96.1,27.1
Br.C/C=C/Cn1cnc2c(O)c(Cl)cc(Cl)c2c1=O [PB 1126],,69,3.7,,,,
O=c1c2c(Cl)ccc(O)c2ncn1CC1CC1 [PB 1132],0.47,16,15.2,,,86.3,57.6
O=c1c2c(Cl)ccc(O)c2ncn1Cc1ccccn1 [PB 1133],0.79,22,> 20,,,,
O=c1c2c(Cl)cc(I)c(O)c2ncn1Cc1ccccn1 [PB 1141],0.48,26,19.5,,,102.8,137
CCc1cnc2c(O)cccn2c1=S [PB 1143],0.48,62,4.1,,,93.3,73.7
O=C(NCc1ccc(F)cc1)c1cnc2c(O)cccn2c1=O [PB 1154],0.64,31,> 20,,,76.7,54.2
O=c1c2ccc(I)c(O)c2ncn1Cc1cccc(Cn2cnc3c(O)c(I)ccc3c2=O)n1 [PB 1155],0.31,59,3.9,,,,

# Now from value to molecule, other results behind:
IC50 (Aβ 1-42) [µM],Disaggregation % Aggregate reduction at 5 μM [1] [%],EC50 [1] [µM],Compound,Cytotox (% viable) Neuronal cells at 1 μM [2] [%],Cytotox (% viable) Neuronal cells at 10 μM [2] [%],Cytotox (% viable) M17 cells at 1 μM [3] [%],Cytotox (% viable) M17 cells at 10 μM [3] [%]
0.96,22,> 20,O=c1c2cccc(O)c2ncn1-c1ccc(F)cc1 [PB 1156],,,92.7,67.5
0.68,49.9,5.06,CCCCNC(=O)c1cnc2c(O)cccn2c1=O [PB 1159],,,115,41.1
3.2,52,4.7,O=c1c2ccc(I)c(O)c2ncn1-c1ccc(F)cc1 [PB 1162],,,93.9,36.5
0.29,43.3,11,CCN(CC)CCn1cnc2c(O)c(I)ccc2c1=O [PB 1163],,,106.5,41.4
0.24,26,> 20,O=c1c2c(Cl)cc(I)c(O)c2ncn1-c1cccnc1 [PB 1164],,,112,111
0.43,21.7,> 20,CCCNC(=O)Cn1cnc2c(O)c(I)ccc2c1=O [PB 1166],,,105,115.8
0.39,39.3,7.4,CCN(CC)C(=O)Cn1cnc2c(O)c(I)ccc2c1=O [PB 1167],,,92.2,98.7
0.31,64,1.44,CCn1cnc2c(O)c(I)cc(I)c2c1=O [PB 1169],,,,
0.72,53,4.28,O=C1c2ccccc2C(=O)N1CCn1cnc2c(O)c(I)ccc2c1=O [PB 1170],,,127.4,104.8
> 20,10,> 20,Oc1ccccc1-c1cn2ccccc2n1 [PB 1173],,,,
0.96,22,14.7,O=C(Nc1nc2ccc(F)cc2s1)c1cnc2c(O)cccn2c1=O [PB 1174],,,60.1,34.2
0.3,45,6.9,CCCCCn1cnc2c(O)c(I)ccc2c1=O [PB 1176],,,86.3,38.5
0.59,24,> 20,O=C(Cn1cnc2c(O)cccc2c1=O)Nc1ccccn1 [PB 1182],,,110.1,98.2
0.54,49,5.27,CCC(C)Cn1cnc2c(O)cccc2c1=O (stereo not drawn) [PB 1184],,,102.7,47.2
0.6,35,9.5,O=C1c2ccccc2C(=O)N1CCn1cnc2c(O)cccc2c1=O [PB 1185],,,103.9,106.5
> 10,10,6.89,Oc1cccc2sc(Cc3ccccc3)nc12 [PB 1191],,,,
> 10,21.5,> 20,COc1ccc(NCc2cccc3cccnc23)cc1 [PB 1194],,,,
> 10,19.9,> 20,Fc1ccc(NCc2cccc3cccnc23)cc1 [PB 1195],,,,
